Laboratory results from patent US10363299B2, “Compositions and methods for preventing and treating rhinovirus infections” (priority 2015, dated 2019).
“And” between values parts separate entries of the source, which are not always exact repeats. Identical values can stand only once.

What was measured:
Format in all cases: cell-based, human
CD4+ T cells = assay: Tetramer-guided epitope mapping (TGEM): pMHCII tetramer staining of PBMC cultures stimulated with RV peptides; conditions: one value per subject
Source text: (§1) Peptide libraries consisting of 20mers with a 12 amino acid overlap were generated to span the VP1, VP2 and VP4 protein sequences of RV-A16, and VP1 and VP2 protein sequences of RV-A39 (UniprotKB accession # Q82122, Q5XLP5). […] Biologically relevant pMHCII complexes were identified by tetramer-guided epitope mapping (TGEM). This involved 2 steps: First, PBMC cultures established from subjects with known HLA-DR types were stimulated with RV peptide pools derived from VP1, VP2, or VP4, and then stained with pMHCII tetramer pools composed of HLA-DR molecules corresponding to those expressed in the test subject; Second, positive signals were de-convoluted by repeating and staining with single-peptide tetramers. Tetramers that gave strong positive signals (˜1% of total CD4+ T cells) in the single peptide-tetramer screen in more than one subject, were then re-tested for their ability to detect RV-specific CD4+ T cells in non-stimulated PBMCs (denoted as ex vivo analysis) in multiple subjects.
(§2) All experiments were performed in subjects expressing HLA-DR molecules corresponding to the selected tetramer. Precursor frequencies of circulating tetramer+ cells were then calculated by established methods. Tetramer+ cells were phenotyped for surface markers by staining PBMCs with PE-conjugated tetramers, labeling with anti-PE magnetic beads, enriching with an AutoMACS separator (Miltenyi Biotec, Auburn, Calif., USA), and then counterstaining for surface markers. A tetramer displaying an irrelevant peptide, GAD555-567, was used as a staining control. For simplicity, identified RV-A16 peptide epitopes were given a numerical designation.

RV-specific CD4+ T cells [1] = assay: Direct ex vivo pMHCII tetramer staining of non-stimulated PBMCs; parameters: key to Validated: Y means validated; conditions: for Ex Vivo Frequency (# per 10^6 CD4): directly ex vivo, without culture, one value per subject
Source text: as §1, §2

RV-specific CD4+ T cells [2] = assay: Assay to assess T-cell cross-reactivity (14-day peptide stimulation of PBMCs, tetramer and cytokine staining); conditions: PBMCs from HLA-DR*0401+ subjects stimulated 14 days
Procedure: RV-specific CD4+ T cells were expanded in vitro using established methods. Briefly, PBMCs from HLA-DRB 1*0401+ subjects were stimulated with RV-A39 VP2169-188, or else unstimulated, for 14 days. Supplemental IL-2 (10 U/ml) was given days 7-14. Cells were then stained with RV tetramers and re-stimulated with PMA and ionomycin in the presence of Brefeldin A before staining for intracellular cytokines. Cells were analyzed on a BD LSR Fortessa (UVA Flow Cytometry Core Facility) and data analysis was performed using FlowJo version 9.3.3 (Tree Star Inc., Ashland, Oreg.). Analysis and presentation of distributions was performed using SPICE version 5.3, downloaded from a National Institutes of Health website.

[3] = HLA allele 1*0101 tetramer, tetramer-positive CD4+ T cells in peptide-stimulated PBMC cultures
[4] = HLA allele DRB5 tetramer, peptide-stimulated PBMC cultures
[5] = HLA allele 1*0101 tetramer, reliable ex vivo signal (tetramer+ cells ≥2 per million CD4+ T cells in ≥3 subjects)
[6] = HLA allele 1*0701 tetramer, peptide-stimulated PBMC cultures
[7] = HLA allele 1*1501 tetramer, peptide-stimulated PBMC cultures
[8] = HLA allele 1*0701 tetramer, reliable ex vivo signal
[9] = HLA allele 1*1101 tetramer, peptide-stimulated PBMC cultures
[10] = HLA allele 1*0401 tetramer, peptide-stimulated PBMC cultures
[11] = HLA allele DRB5 tetramer, reliable ex vivo signal
[12] = HLA allele 1*0404 tetramer, peptide-stimulated PBMC cultures

Sequence: PHQFINLRSNNSATLIVPYV [VP2P24]
- In Vitro Frequency (% CD4) (CD4+ T cells; [3]): 2.82 % CD4 and 3.17 % CD4 and 11.3 % CD4
- In Vitro Frequency (% CD4) (CD4+ T cells; [4]): 0 % CD4 (2×) and 0.67 % CD4
- Ex Vivo Frequency (# per 10^6 CD4) (RV-specific CD4+ T cells [1]; HLA allele 1*0101 tetramer): 17 # per 10^6 CD4 and 148 # per 10^6 CD4 and 26 # per 10^6 CD4
- Validated (RV-specific CD4+ T cells [1]; [5]): Y

Sequence: PRFSLPFLSIASAYYMFYDG [VP1P23]
- In Vitro Frequency (% CD4) (CD4+ T cells; [3]): 8.37 % CD4 and 0.35 % CD4 and 2.37 % CD4
- In Vitro Frequency (% CD4) (CD4+ T cells; [6]): 1.84 % CD4 and 0.74 % CD4
- In Vitro Frequency (% CD4) (CD4+ T cells; [7]): 0.28 % CD4 and 0.78 % CD4 and 0 % CD4
- In Vitro Frequency (% CD4) (CD4+ T cells; [4]): 2.03 % CD4 and 2.90 % CD4
- Ex Vivo Frequency (# per 10^6 CD4) (RV-specific CD4+ T cells [1]; HLA allele 1*0101 tetramer): 3 # per 10^6 CD4 and 8 # per 10^6 CD4 and 13 # per 10^6 CD4 and 2 # per 10^6 CD4
- Validated (RV-specific CD4+ T cells [1]; [5]): Y
- Ex Vivo Frequency (# per 10^6 CD4) (RV-specific CD4+ T cells [1]; HLA allele 1*0701 tetramer): 3 # per 10^6 CD4 and 8 # per 10^6 CD4 and 13 # per 10^6 CD4 and 2 # per 10^6 CD4
- Validated (RV-specific CD4+ T cells [1]; [8]): Y
- Ex Vivo Frequency (# per 10^6 CD4) (RV-specific CD4+ T cells [1]; HLA allele DRB5 tetramer): 11 # per 10^6 CD4

Sequence: PSVEACGYSDRIIQITRGDS [VP2P1]
- In Vitro Frequency (% CD4) (CD4+ T cells; [9]): 1.59 % CD4 and 1.16 % CD4 and 0.66 % CD4

Sequence: QIRRKFEMFTYARFDSEITM [VP1P14]
- In Vitro Frequency (% CD4) (CD4+ T cells; [10]): 0.59 % CD4 and 0.96 % CD4
- Ex Vivo Frequency (# per 10^6 CD4) (RV-specific CD4+ T cells [1]; HLA allele 1*0401 tetramer): 4 # per 10^6 CD4

Sequence: QSGTNASVFWQHGQPFPRFS [VP1P21]
- In Vitro Frequency (% CD4) (CD4+ T cells; [4]): 3.91 % CD4 and 0.95 % CD4
- Ex Vivo Frequency (# per 10^6 CD4) (RV-specific CD4+ T cells [1]; HLA allele DRB5 tetramer): 11 # per 10^6 CD4 and 28 # per 10^6 CD4 and 20 # per 10^6 CD4
- Validated (RV-specific CD4+ T cells [1]; [11]): Y

Sequence: RGDSTITSQDVANAVVGYGV [VP2P3]
- In Vitro Frequency (% CD4) (CD4+ T cells; [12]): 6.86 % CD4 and 1.61 % CD4
- Ex Vivo Frequency (# per 10^6 CD4) (RV-specific CD4+ T cells [1]; HLA allele 1*0404 tetramer): 36 # per 10^6 CD4 and 1 # per 10^6 CD4 and 38 # per 10^6 CD4 and 5 # per 10^6 CD4
- Validated (RV-specific CD4+ T cells [1]; HLA allele 1*0404 tetramer, reliable ex vivo signal): Y

Sequence: RPPRAVQYSHTHTTNYKLSS [VP1P32]
- In Vitro Frequency (% CD4) (CD4+ T cells; [6]): 0.53 % CD4 and 0 % CD4

Sequence: SDDNWLNFDGTLLGNLLIFP [RV-A39 VP2169-188]
- cytokine profile of expanded RV-specific T cells (RV-specific CD4+ T cells [2]; PMA/ionomycin re-stimulation): a major IFN-γ+IL-4neg population, and minor populations expressing IL-17A and IL-21
- expansion of tetramer-positive RV-specific CD4+ T cells after peptide stimulation (RV-specific CD4+ T cells [2]; RV-A16 and RV-A39 VP2 tetramers): induced expansion of both RV-A16- and RV-A39-specific T-cells

Sequence: SDRIIQITRGDSTITSQDVA [VP2P2]
- In Vitro Frequency (% CD4) (CD4+ T cells; [9]): 2.18 % CD4 and 1.22 % CD4 and 2.28 % CD4
- Ex Vivo Frequency (# per 10^6 CD4) (RV-specific CD4+ T cells [1]; HLA allele 1*1101 tetramer): 8 # per 10^6 CD4 and 11 # per 10^6 CD4 and 15 # per 10^6 CD4
- Validated (RV-specific CD4+ T cells [1]; HLA allele 1*1101 tetramer, reliable ex vivo signal): Y

Sequence: SIASAYYMFYDGYDGDTYKS [VP1P24]
- In Vitro Frequency (% CD4) (CD4+ T cells; [7]): 0.31 % CD4 and 0 % CD4 (2×)

Sequence: SNNSATLIVPYVNAVPMDSM [VP2P25]
- In Vitro Frequency (% CD4) (CD4+ T cells; [10]): 0 % CD4 and 0.46 % CD4
- In Vitro Frequency (% CD4) (CD4+ T cells; [7]): 2.26 % CD4 and 9.02 % CD4
- Ex Vivo Frequency (# per 10^6 CD4) (RV-specific CD4+ T cells [1]; HLA allele 1*1501 tetramer): 31 # per 10^6 CD4 and 5 # per 10^6 CD4 and 13 # per 10^6 CD4 and 71 # per 10^6 CD4
- Validated (RV-specific CD4+ T cells [1]; HLA allele 1*1501 tetramer, reliable ex vivo signal): Y

Sequence: TSKGWWWKLPDALKDMGIFG [VP2P10]
- In Vitro Frequency (% CD4) (CD4+ T cells; [4]): 3.93 % CD4 and 4.49 % CD4 and 0.38 % CD4
- Ex Vivo Frequency (# per 10^6 CD4) (RV-specific CD4+ T cells [1]; HLA allele DRB5 tetramer): 60 # per 10^6 CD4 and 24 # per 10^6 CD4 and 136 # per 10^6 CD4
- Validated (RV-specific CD4+ T cells [1]; [11]): Y

Sequence: TSSNRFYTLDSKMWNSTSKG [VP2P8]
- In Vitro Frequency (% CD4) (CD4+ T cells; [12]): 0.77 % CD4 and 1.82 % CD4
- In Vitro Frequency (% CD4) (CD4+ T cells; [9]): 0 % CD4 (2×) and 0.26 % CD4
- Ex Vivo Frequency (# per 10^6 CD4) (RV-specific CD4+ T cells [1]; HLA allele 1*0404 tetramer): 2 # per 10^6 CD4

Sequence: TTRNDYAWQSGTNASVFWQH [VP1P20]
- In Vitro Frequency (% CD4) (CD4+ T cells; [3]): 18.7 % CD4 and 0 % CD4 (2×)

Sequence: VPYVNAVPMDSMVRHNNWSL [VP2P26]
- In Vitro Frequency (% CD4) (CD4+ T cells; [6]): 1.57 % CD4 and 0.84 % CD4
- Ex Vivo Frequency (# per 10^6 CD4) (RV-specific CD4+ T cells [1]; HLA allele 1*0701 tetramer): 4 # per 10^6 CD4 and 16 # per 10^6 CD4 and 14 # per 10^6 CD4 and 5 # per 10^6 CD4
- Validated (RV-specific CD4+ T cells [1]; [8]): Y

Sequence: VVTNDMGTLCSRIVTSEQLH [VP1P27]
- In Vitro Frequency (% CD4) (CD4+ T cells; [6]): 0 % CD4 and 0.13 % CD4
